The results in this text go back to patent US20250026778A1 (TIUMBIO CO., LTD., priority 2021, published 2025).

The target of the first assay is T1, his-galectin-3 (Homo sapiens, UniProt P17931).
T1 construct: purchased Abcam
T1 sequence (P17931 whole entry): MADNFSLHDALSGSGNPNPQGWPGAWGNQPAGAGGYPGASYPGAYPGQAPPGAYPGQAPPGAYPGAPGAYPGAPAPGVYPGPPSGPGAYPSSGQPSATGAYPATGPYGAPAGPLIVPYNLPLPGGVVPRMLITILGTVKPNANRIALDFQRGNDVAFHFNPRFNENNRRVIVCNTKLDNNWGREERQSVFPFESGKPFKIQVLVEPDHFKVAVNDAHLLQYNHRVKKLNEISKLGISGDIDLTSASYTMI
As to the kind of experiment: TR-FRET assay (in vitro galectin-3 binding inhibitory activity test). To be noted: Table 1; compound at 20 μM; 60 nM his-galectin-3, 15 nM biotin-ASF. The method, boiled down:
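Compound is premixed with his-galectin-3 (60 nM final), then biotin-ASF (15 nM), Tb anti-His antibody (2 nM) and streptavidin-d2 (20 nM) are added. After at least 3.5 hours at RT in HEPES/NaCl buffer with Tween 20 and BSA, TR-FRET is read at 615/665 nm. DMSO serves as the uninhibited control, ASF omission as background.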
In the case of `O=C1CCCC2(O[C@H](CO)[C@H](O)[C@H](n3cc(-c4cc(F)c(F)c(F)c4)nn3)[C@H]2O)N1CC(F)F` (stereo partly drawn) [Compound A94, (2R,3R,4S,5R)-7-(2,2-difluoroethyl)-3.5-dihydroxy-2-(hydroxymethyl)-4-(4-(3,4,5-trifluorophenyl)-1H-1,2,3-triazol-1-yl)-1-oxa-7-azaspiro[5.5]undecan-8-one], the “% Inhibitory activity (at 20 μM)” value is given as “D (inhibition rate was less than 25%)”.

The assay is the same for the next values; noted with them: Table 1; compound at 20 μM; 60 nM his-galectin-3, 15 nM biotin-ASF; read-out: % Inhibitory activity (at 20 μM).
In the case of `OC[C@H]1O[C@@]2(CCCCO2)[C@H](OCc2ccccn2)[C@@H](n2cc(-c3cc(F)c(F)c(F)c3)nn2)[C@H]1O` [Compound A50, (2R,3R,4S,5R,6S)-2-(hydroxymethyl)-5-(pyridin-2-ylmethoxy)-4-(4-(3,4,5-trifluorophenyl)-1H-1,2,3-triazol-1-yl)-1,7-dioxaspiro[5.5]undecan-3-ol], the inhibition at 20 µM fell in the range of 25 to 50%.
On the same count and under the same terms, the same measure for `O=C(N[C@@H]1CCO[C@]12O[C@H](CO)[C@H](O)[C@H](n1cc(-c3cc(F)c(F)c(F)c3)nn1)[C@H]2O)c1cccc2ccccc12` [Compound A133, N-((4R,5S,7R,8R,9S,10R)-8,10-dihydroxy-7-(hydroxymethyl)-9-(4-(3,4,5-trifluorophenyl)-1H-1,2,3-triazol-1-yl)-1,6-dioxaspiro[4.5]decan-4-yl)-1-naphthamide]: over 75%; for `O=C(N[C@@H]1CCO[C@]12O[C@H](CO)[C@H](O)[C@H](n1cc(-c3cc(F)c(F)c(F)c3)nn1)[C@H]2O)c1cccc(OC(F)(F)F)c1` [Compound A122, N-((4R,5S,7R,8R,9S,10R)-8,10-dihydroxy-7-(hydroxymethyl)-9-(4-(3,4,5-trifluorophenyl)-1H-1,2,3-triazol-1-yl)-1,6-dioxaspiro[4.5]decan-4-yl)-3-(trifluoromethoxy)benzamide]: 50 to 75%; for `O=C(O[C@@H]1[C@@H](n2cc(-c3cc(F)c(F)c(F)c3)nn2)[C@@H](O)[C@@H](CO)O[C@@]12CCCCO2)c1cccc(F)c1` [Compound A51, (2R,3R,4S,5R,6S)-3-hydroxy-2-(hydroxymethyl)-4-(4-(3,4,5-trifluorophenyl)-1H-1,2,3-triazol-1-yl)-1,7-dioxaspiro[5.5]undecan-5-yl 3-fluorobenzoate]: 25 to 50%.
On the same count and under the same terms, next, `O=C(c1ccccc1)N1CCC[C@]2(C1)O[C@H](CO)[C@H](O)[C@H](n1cc(-c3cc(F)c(F)c(F)c3)nn1)[C@H]2O` [Compound A138, ((2R,3R,4S,5R,6R)-3,5-dihydroxy-2-(hydroxymethyl)-4-(4-(3,4,5-trifluorophenyl)-1H-1,2,3-triazol-1-yl)-1-oxa-8-azaspiro[5.5]undecan-8-yl)(phenyl)methanone]: under 25%; `O=C(N[C@@H]1CCO[C@]12O[C@H](CO)[C@H](O)[C@H](n1cc(-c3cc(F)c(F)c(F)c3)nn1)[C@H]2O)c1ccc2ccccc2c1` [Compound A129, N-((4R,5S,7R,8R,9S,10R)-8,10-dihydroxy-7-(hydroxymethyl)-9-(4-(3,4,5-trifluorophenyl)-1H-1,2,3-triazol-1-yl)-1,6-dioxaspiro[4.5]decan-4-yl)-2-naphthamide]: 50 to 75%; `OC[C@H]1O[C@@]2(CCCO2)[C@H](OCc2ccc(C(F)(F)F)o2)[C@@H](n2cc(-c3cc(F)c(F)c(F)c3)nn2)[C@H]1O` [Compound A19, (5S,7R,8R,9S,10R)-7-(hydroxymethyl)-10-((5-(trifluoromethyl)furan-2-yl)methoxy)-9-(4-(3,4,5-trifluorophenyl)-1H-1,2,3-triazol-1-yl)-1,6-dioxaspiro[4.5]decan-8-ol]: 25 to 50%.
Consider `OC[C@H]1O[C@]2(OCC[C@H]2NCc2cccc(C(F)(F)F)c2)[C@H](O)[C@@H](n2cc(-c3cc(F)c(F)c(F)c3)nn2)[C@H]1O` [Compound A96, (4R,5S,7R,8R,9S,10R)-7-(hydroxymethyl)-4-((3-(trifluoromethyl)benzyl)amino)-9-(4-(3,4,5-trifluorophenyl)-1H-1,2,3-triazol-1-yl)-1,6-dioxaspiro[4.5]decane-8,10-diol], for which the inhibition at 20 µM is under 25%.

The same assay, now with this note: Table 2; compound at 20 μM; 60 nM his-galectin-3, 15 nM biotin-ASF; read-out: % Inhibitory activity (at 20 μM).
Regarding `O=C(N[C@@H]1CCO[C@]12O[C@H](CO)[C@H](O)[C@H](n1cc(-c3cc(F)c(F)c(F)c3)nn1)[C@H]2O)c1c[nH]c2ccc(Cl)cc12` [Compound A219, 5-chloro-N-((4R,5S,7R,8R,9S,10R)-8,10-dihydroxy-7-(hydroxymethyl)-9-(4-(3,4,5-trifluorophenyl)-1H-1,2,3-triazol-1-yl)-1,6-dioxaspiro[4.5]decan-4-yl)-1H-indole-3-carboxamide], the inhibition at 20 µM is 50 to 75%.
The same measure, in the same setting: next, `O=C(c1ccc2ccccc2c1)N1CCC[C@]2(C1)O[C@H](CO)[C@H](O)[C@H](n1cc(-c3cc(F)c(F)c(F)c3)nn1)[C@H]2O` [Compound A186, ((2R,3R,4S,5R,6R)-3,5-dihydroxy-2-(hydroxymethyl)-4-(4-(3,4,5-trifluorophenyl)-1H-1,2,3-triazol-1-yl)-1-oxa-8-azaspiro[5.5]undecan-8-yl)(naphthalen-2-yl)methanone]: under 25%; `O=C(c1cccc2ccccc12)N1CCC[C@]2(C1)O[C@H](CO)[C@H](O)[C@H](n1cc(-c3cc(F)c(F)c(F)c3)nn1)[C@H]2O` [Compound A185, ((2R,3R,4S,5R,6R)-3,5-dihydroxy-2-(hydroxymethyl)-4-(4-(3,4,5-trifluorophenyl)-1H-1,2,3-triazol-1-yl)-1-oxa-8-azaspiro[5.5]undecan-8-yl)(naphthalen-1-yl)methanone]: under 25%; `O=C(N[C@@H]1CCO[C@]12O[C@H](CO)[C@H](O)[C@H](n1cc(-c3cc(F)c(F)c(F)c3)nn1)[C@H]2O)c1cc(=O)[nH]c2ccccc12` [Compound A254, N-((4R,5S,7R,8R,9S,10R)-8,10-dihydroxy-7-(hydroxymethyl)-9-(4-(3,4,5-trifluorophenyl)-1H-1,2,3-triazol-1-yl)-1,6-dioxaspiro[4.5]decan-4-yl)-2-oxo-1,2-dihydroquinoline-4-carboxamide]: 50 to 75%.
Still for that read-out and setting: the same measure for `COc1ccc2ccccc2c1C(=O)N[C@@H]1CCO[C@]12O[C@H](CO)[C@H](O)[C@H](n1cc(-c3cc(F)c(F)c(F)c3)nn1)[C@H]2O` [Compound A242, N-((4R,5S,7R,8R,9S,10R)-8,10-dihydroxy-7-(hydroxymethyl)-9-(4-(3,4,5-trifluorophenyl)-1H-1,2,3-triazol-1-yl)-1,6-dioxaspiro[4.5]decan-4-yl)-2-methoxy-1-naphthamide]: 50 to 75%; for `O=C(N[C@@H]1CCO[C@]12O[C@H](CO)[C@H](O)[C@H](n1cc(-c3cc(F)c(F)c(F)c3)nn1)[C@H]2O)c1cccc2ncc(Br)cc12` [Compound A208, 3-bromo-N-((4R,5S,7R,8R,9S,10R)-8,10-dihydroxy-7-(hydroxymethyl)-9-(4-(3,4,5-trifluorophenyl)-1H-1,2,3-triazol-1-yl)-1,6-dioxaspiro[4.5]decan-4-yl)quinoline-5-carboxamide]: over 75%; for `O=C(N[C@@H]1CCO[C@]12O[C@H](CO)[C@H](O)[C@H](n1cc(-c3cc(F)c(F)c(F)c3)nn1)[C@H]2O)c1cccc2ncc(F)cc12` [Compound A216, N-((4R,5S,7R,8R,9S,10R)-8,10-dihydroxy-7-(hydroxymethyl)-9-(4-(3,4,5-trifluorophenyl)-1H-1,2,3-triazol-1-yl)-1,6-dioxaspiro[4.5]decan-4-yl)-3-fluoroquinoline-5-carboxamide]: over 75%.
Take `O=C(N[C@@H]1CCO[C@]12O[C@H](CO)[C@H](O)[C@H](n1cc(-c3cc(F)c(F)c(F)c3)nn1)[C@H]2O)c1cccc2cccnc12` [Compound A244, N-((4R,5S,7R,8R,9S,10R)-8,10-dihydroxy-7-(hydroxymethyl)-9-(4-(3,4,5-trifluorophenyl)-1H-1,2,3-triazol-1-yl)-1,6-dioxaspiro[4.5]decan-4-yl)quinoline-8-carboxamide]: the inhibition at 20 µM lay in the range of 50 to 75%.
Same read-out and setting: next, `O=C(Nc1cccc(Cl)c1)N[C@@H]1CCO[C@]12O[C@H](CO)[C@H](O)[C@H](n1cc(-c3cc(F)c(F)c(F)c3)nn1)[C@H]2O` [Compound A215, 1-(3-chlorophenyl)-3-((4R,5S,7R,8R,9S,10R)-8,10-dihydroxy-7-(hydroxymethyl)-9-(4-(3,4,5-trifluorophenyl)-1H-1,2,3-triazol-1-yl)-1,6-dioxaspiro[4.5]decan-4-yl)urea]: over 75%; `OC[C@H]1O[C@@]2(CCCN(c3ccccc3)C2)[C@H](O)[C@@H](n2cc(-c3cc(F)c(F)c(F)c3)nn2)[C@H]1O` [Compound A191, (2R,3R,4S,5R,6R)-2-(hydroxymethyl)-8-phenyl-4-(4-(3,4,5-trifluorophenyl)-1H-1,2,3-triazol-1-yl)-1-oxa-8-azaspiro[5.5]undecane-3,5-diol]: under 25%.
The same measure, in the same setting: next, `O=C(N[C@@H]1CCO[C@]12O[C@H](CO)[C@H](O)[C@H](n1cc(-c3cc(F)c(F)c(F)c3)nn1)[C@H]2O)c1cc2ccccc2cc1Cl` [Compound A201, 3-chloro-N-((4R,5S,7R,8R,9S,10R)-8,10-dihydroxy-7-(hydroxymethyl)-9-(4-(3,4,5-trifluorophenyl)-1H-1,2,3-triazol-1-yl)-1,6-dioxaspiro[4.5]decan-4-yl)-2-naphthamide]: over 75%.

The assay is the same for the next values; noted with them: Table 3, found values; compound at 20 μM; 60 nM his-galectin-3, 15 nM biotin-ASF; read-out: % Inhibitory activity (at 20 μM).
Regarding `OC[C@H]1O[C@@]2(CCCN(c3ccccc3)C2)[C@H](O)[C@@H](n2cc(-c3cc(F)c(F)c(F)c3)nn2)[C@H]1O` [Compound A191, (2R,3R,4S,5R,6R)-2-(hydroxymethyl)-8-phenyl-4-(4-(3,4,5-trifluorophenyl)-1H-1,2,3-triazol-1-yl)-1-oxa-8-azaspiro[5.5]undecane-3,5-diol], the inhibition at 20 µM is 24%.

Staying with this assay, now noted: read-out: % Inhibitory activity (at 20 μM), Table 2; compound at 20 μM; 60 nM his-galectin-3, 15 nM biotin-ASF.
For `COc1cccc(CN[C@@H]2CCO[C@]23O[C@H](CO)[C@H](O)[C@H](n2cc(-c4cc(F)c(F)c(F)c4)nn2)[C@H]3O)c1` [Compound A155, (4R,5S,7R,8R,9S,10R)-7-(hydroxymethyl)-4-((3-methoxylbenzyl)amino)-9-(4-(3,4,5-trifluorophenyl)-1H-1,2,3-triazol-1-yl)-1,6-dioxaspiro[4.5]decane-8,10-diol], the inhibition at 20 µM was under 25%.
